# In BigSolDB 2.1:
compound,measurement,setting,value
COc1cc(-c2cc(=O)c3c(O)cc(O)cc3o2)cc(OC)c1O,solubility (mole fraction),"in ethanol, 288.15 K",5.94e-06
same,solubility (mole fraction),"in ethanol, 293.16 K",8.85e-06
same,solubility (mole fraction),"in ethanol, 298.15 K",1.26e-05
same,solubility (mole fraction),"in ethanol, 303.15 K",1.72e-05
same,solubility (mole fraction),"in ethanol, 308.16 K",2.19e-05
same,solubility (mole fraction),"in ethanol, 313.18 K",3e-05
same,solubility (mole fraction),"in ethanol, 318.15 K",3.83e-05
same,solubility (mole fraction),"in water, 288.15 K",5e-10
same,solubility (mole fraction),"in water, 293.16 K",1e-09
same,solubility (mole fraction),"in water, 298.15 K",1.4e-09
same,solubility (mole fraction),"in water, 303.15 K",2.1e-09
same,solubility (mole fraction),"in water, 308.16 K",3.5e-09
same,solubility (mole fraction),"in water, 313.18 K",5.6e-09
same,solubility (mole fraction),"in water, 318.15 K",8.1e-09
